Measured values published in ChEMBL document CHEMBL4680176, “Identification of DOT1L inhibitors by structure-based virtual screening adapted from a nucleoside-focused library” (Eur J Med Chem, 2020).
Converted amounts (≈) assume the structure as drawn. The source made the active and inactive calls. The calls are words filed in the database; no cut-off is given here.

Key:
[1] = biological target: T1, Histone H3 methyltransferase DOT1 variant d (Mus musculus) (UniProt Q679P4); experiment: Inhibition of DOT1L in mouse bone marrow cell transformed with MLL-AF9 cells assessed as reduction in H3K79 methylation measured after 6 days by Western blot analysis; type: cell-based; conditions: time 6.0 day
T1 sequence (whole entry): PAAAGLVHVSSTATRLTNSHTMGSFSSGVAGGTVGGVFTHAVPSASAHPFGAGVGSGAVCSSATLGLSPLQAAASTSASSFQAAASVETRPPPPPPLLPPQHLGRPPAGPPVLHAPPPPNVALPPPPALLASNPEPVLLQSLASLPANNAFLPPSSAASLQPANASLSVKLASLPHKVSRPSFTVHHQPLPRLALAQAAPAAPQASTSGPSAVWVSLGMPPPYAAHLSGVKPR

[2] = Aqueous solubility of compound; type: physicochemical
Bone marrow cell [3] = experiment: Antiproliferative activity against mouse bone marrow cell transformed with MLL-AF9 assessed as reduction in cell growth measured after 11 days by hemocytometry; type: functional, cell-based; conditions: 264 h
[4] = biological target: T2, Histone-lysine N-methyltransferase SETD7 (Homo sapiens, UniProt Q8WTS6); experiment: Inhibition of recombinant human SET7/9 using core histone as substrate by hotspot assay
T2 sequence (Q8WTS6 whole entry): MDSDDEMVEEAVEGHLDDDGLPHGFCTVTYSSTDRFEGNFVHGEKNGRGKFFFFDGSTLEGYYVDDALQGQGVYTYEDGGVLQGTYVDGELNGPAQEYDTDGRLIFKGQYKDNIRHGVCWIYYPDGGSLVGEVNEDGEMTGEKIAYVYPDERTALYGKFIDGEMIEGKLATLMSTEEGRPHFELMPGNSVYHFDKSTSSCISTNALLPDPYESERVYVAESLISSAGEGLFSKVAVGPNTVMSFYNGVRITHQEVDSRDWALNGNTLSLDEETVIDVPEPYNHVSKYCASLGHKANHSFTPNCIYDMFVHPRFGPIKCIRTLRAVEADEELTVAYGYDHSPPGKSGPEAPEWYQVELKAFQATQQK

[5] = biological target: T3, Histone-lysine N-methyltransferase EHMT2 (Homo sapiens, UniProt Q96KQ7); experiment: Inhibition of recombinant human G9a using histone H3 (1 to 21) as substrate by hotspot assay
T3 sequence (Q96KQ7 whole entry): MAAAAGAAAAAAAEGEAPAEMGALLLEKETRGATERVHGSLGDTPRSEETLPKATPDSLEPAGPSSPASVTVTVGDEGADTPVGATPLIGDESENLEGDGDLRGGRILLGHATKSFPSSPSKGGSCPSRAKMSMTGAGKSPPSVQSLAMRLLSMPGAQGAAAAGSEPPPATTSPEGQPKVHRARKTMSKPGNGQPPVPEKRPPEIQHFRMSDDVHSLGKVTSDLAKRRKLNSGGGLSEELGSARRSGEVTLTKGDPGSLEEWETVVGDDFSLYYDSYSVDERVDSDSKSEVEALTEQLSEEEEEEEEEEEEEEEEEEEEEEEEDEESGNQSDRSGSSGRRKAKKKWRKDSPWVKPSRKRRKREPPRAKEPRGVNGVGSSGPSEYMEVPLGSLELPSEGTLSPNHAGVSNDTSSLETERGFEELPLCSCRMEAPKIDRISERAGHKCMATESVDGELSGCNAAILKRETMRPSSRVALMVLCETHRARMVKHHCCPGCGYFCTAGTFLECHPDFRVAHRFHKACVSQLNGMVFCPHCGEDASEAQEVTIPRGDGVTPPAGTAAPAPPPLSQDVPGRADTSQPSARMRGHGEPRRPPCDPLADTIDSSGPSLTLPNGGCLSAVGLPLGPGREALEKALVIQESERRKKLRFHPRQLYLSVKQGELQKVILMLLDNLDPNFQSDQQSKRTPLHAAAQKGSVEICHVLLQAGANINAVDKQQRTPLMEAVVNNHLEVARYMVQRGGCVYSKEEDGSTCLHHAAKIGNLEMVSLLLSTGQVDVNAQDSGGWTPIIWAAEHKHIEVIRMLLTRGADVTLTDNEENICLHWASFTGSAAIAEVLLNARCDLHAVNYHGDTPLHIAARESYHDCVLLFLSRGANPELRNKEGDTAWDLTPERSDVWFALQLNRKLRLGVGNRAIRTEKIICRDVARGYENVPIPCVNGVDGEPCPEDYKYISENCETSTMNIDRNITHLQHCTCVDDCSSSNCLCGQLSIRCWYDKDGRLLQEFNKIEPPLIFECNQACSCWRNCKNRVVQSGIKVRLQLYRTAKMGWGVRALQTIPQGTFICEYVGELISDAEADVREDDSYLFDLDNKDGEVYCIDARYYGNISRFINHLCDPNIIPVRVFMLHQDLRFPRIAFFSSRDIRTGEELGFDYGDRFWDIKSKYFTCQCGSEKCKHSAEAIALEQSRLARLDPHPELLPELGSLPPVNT

[6] = biological target: Protein arginine N-methyltransferase 3 (Homo sapiens, UniProt O60678); experiment: Inhibition of recombinant human PRMT3 using histone H4 as substrate by hotspot assay; conditions: read-out: IC50
Bone marrow cell [7] = experiment: Antiproliferative activity against mouse bone marrow cell transformed with E2A-HLF assessed as reduction in cell growth at 1 to 30 uM measured after 15 days by hemocytometry; type: functional, cell-based; conditions: dose 1-30 µM, time 15.0 day
[8] = biological target: Histone-lysine N-methyltransferase, H3 lysine-79 specific (Homo sapiens, UniProt Q8TEK3); experiment: Inhibition of recombinant human N-terminal GST-tagged DOT1L (1 to 420 residues) expressed in Escherichia coli BL21 (DE3) using histone as substrate incubated for 1 hr by MTase-glo based luminescence assay
[9] = biological target: T1, Histone H3 methyltransferase DOT1 variant d (Mus musculus); experiment: Inhibition of DOT1L in mouse bone marrow cell transformed with MLL-AF9 cells assessed as reduction in H3K79 methylation at 30 uM measured after 9 days by Western blot analysis relative to control; type: cell-based; conditions: time 9.0 day

Chain of Protein arginine N-methyltransferase 3 (O60678 whole entry): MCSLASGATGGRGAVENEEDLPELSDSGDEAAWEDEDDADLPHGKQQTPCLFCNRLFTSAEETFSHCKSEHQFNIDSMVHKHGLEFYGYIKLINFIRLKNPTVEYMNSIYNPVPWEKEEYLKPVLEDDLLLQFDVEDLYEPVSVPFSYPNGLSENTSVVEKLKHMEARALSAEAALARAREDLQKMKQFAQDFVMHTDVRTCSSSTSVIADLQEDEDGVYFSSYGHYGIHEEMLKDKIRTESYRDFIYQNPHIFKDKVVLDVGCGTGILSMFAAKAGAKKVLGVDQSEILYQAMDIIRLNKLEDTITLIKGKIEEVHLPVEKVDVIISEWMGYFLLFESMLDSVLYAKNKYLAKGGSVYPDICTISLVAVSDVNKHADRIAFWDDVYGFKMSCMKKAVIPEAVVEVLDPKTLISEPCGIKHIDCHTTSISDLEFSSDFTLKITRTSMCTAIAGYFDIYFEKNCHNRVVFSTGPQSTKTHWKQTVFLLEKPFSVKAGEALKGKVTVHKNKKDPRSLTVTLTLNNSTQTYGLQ
Chain of Histone-lysine N-methyltransferase, H3 lysine-79 specific (Q8TEK3 whole entry, the tested form may be a part): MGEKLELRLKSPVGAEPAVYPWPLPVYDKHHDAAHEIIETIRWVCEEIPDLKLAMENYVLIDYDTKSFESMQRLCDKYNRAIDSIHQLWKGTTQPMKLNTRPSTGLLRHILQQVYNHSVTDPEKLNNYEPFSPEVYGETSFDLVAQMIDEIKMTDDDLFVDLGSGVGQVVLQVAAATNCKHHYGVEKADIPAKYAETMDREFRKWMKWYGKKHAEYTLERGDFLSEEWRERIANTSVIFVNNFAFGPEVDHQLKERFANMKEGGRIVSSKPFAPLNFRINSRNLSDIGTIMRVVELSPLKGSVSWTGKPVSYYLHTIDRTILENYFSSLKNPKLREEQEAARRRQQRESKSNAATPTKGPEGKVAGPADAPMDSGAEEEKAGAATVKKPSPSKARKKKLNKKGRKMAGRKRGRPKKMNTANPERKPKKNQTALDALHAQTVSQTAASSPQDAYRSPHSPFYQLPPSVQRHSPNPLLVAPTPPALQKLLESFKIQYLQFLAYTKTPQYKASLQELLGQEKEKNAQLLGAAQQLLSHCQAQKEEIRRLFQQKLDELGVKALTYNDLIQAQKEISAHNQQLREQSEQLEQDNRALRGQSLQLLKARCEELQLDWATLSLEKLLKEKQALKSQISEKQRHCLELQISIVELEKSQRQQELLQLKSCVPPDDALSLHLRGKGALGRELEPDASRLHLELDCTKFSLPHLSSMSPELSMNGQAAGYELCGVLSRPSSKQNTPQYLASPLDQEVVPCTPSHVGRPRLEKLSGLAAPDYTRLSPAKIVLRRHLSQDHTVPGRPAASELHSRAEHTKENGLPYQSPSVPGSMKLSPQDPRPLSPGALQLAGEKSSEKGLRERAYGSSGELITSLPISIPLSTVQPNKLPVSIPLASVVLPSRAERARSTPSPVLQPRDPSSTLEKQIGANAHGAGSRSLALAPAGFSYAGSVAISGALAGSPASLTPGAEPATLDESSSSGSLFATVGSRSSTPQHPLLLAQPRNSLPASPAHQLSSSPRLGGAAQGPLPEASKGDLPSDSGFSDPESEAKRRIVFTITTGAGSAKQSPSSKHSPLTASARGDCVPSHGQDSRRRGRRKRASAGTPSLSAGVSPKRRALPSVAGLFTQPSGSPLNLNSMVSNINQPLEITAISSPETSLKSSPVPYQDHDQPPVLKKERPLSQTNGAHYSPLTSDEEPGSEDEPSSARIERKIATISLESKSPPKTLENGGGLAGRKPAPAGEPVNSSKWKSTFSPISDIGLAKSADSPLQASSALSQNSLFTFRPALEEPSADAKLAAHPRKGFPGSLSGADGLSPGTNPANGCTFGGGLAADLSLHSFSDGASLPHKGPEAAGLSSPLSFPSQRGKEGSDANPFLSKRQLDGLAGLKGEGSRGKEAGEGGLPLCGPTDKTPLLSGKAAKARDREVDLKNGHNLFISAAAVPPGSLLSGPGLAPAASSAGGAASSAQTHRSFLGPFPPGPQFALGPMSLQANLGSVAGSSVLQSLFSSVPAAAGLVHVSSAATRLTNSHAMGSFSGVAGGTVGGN

Question: What does the source list for `CC(C)(C)c1ccc(NC(=O)c2ncn(CC(=O)NCCn3ccc4c(N)ncnc43)n2)cc1`?
Answer: inhibition [1]: Dose-dependent effect; solubility [2]: 687 µM (≈ 317 µg/mL); IC50 (Bone marrow cell [3]): 1 µM; IC50 [4]: Not Active; IC50 [5]: Not Active; IC50 [6]: 115 µM; inhibition (Bone marrow cell [7]): inactive; IC50 [8]: 1 µM; inhibition [9]: 100%
